Source: patent publication US6140364A, “Arachidonic acid metabolite, 16-HETE” (The University of Vermont and State Agricultural College, priority 1996, dated 2000)

How the values were obtained:
neutrophil aggregation = assay: Neutrophil aggregation (inventors' finding, method not given at the place); assay type: cell-based
[1] = test system: basal human neutrophils (adhesion to a gelatin matrix); assay: Neutrophil adhesion to gelatin matrix, basal (unstimulated); assay type: cell-based; conditions: for inhibition at 1 µM: Homo sapiens, Neutrophil, 10 min preincubation; for inhibition of neutrophil adhesion, basal: 20-HETE at ≤10 μM, 16-HETE isomers 10^-8 to 10^-5 M; for potency of neutrophil inhibition relative to the other stereoisomer: unstimulated and stimulated neutrophils
Description: (§1) Preparation of human polymorphonuclear leukocytes: Venous blood (60-70 ml) was collected from four healthy, normal volunteers into syringes containing heparin (1 U/ml). Polymorphonuclear leukocytes (PMNs) were isolated by a histopaque density gradient technique as previously described in Liu et al., Adhesion, Its role in Inflammatory Disease, Freeman and Co., New York, 1992, pp 189-192. Briefly, blood aliquots (6 ml) were layered over two layers (3 ml) of histopaque 1077 and 1119 in a conical centrifuge tube. The sample was then subjected to centrifugation at 100× g for 30 minutes at room temperature and the top layer, containing the neutrophils, was carefully collected. Hypotonic lysis was used to separate out the red blood cells. The neutrophils were then isolated from the sample by centrifugation (2000× g) and suspended in Hanks balanced salt solution (HBSS) containing 1 mM Ca^2+ and 0.8 mM Mg^2+ for studies involving arachidonic acid metabolism, and in M199 (with 1% BSA) for neutrophil adhesion assays. Total cells were counted using a hemocytometer and leukocytes were counted after staining with Wright-Giemsa stain. For each experiment, the cell preparations used contain ≥97% neutrophils, having ≥95% viability as determined by a trypan blue exclusion assay.
Neutrophil adhesion: Isolated neutrophils were resuspended in M199 containing 1% BSA with a final concentration of 3×10^6 cells per ml. Cells suspensions (1 ml) were incubated with or without a test compound, 16(S)-HETE, 16(R)-HETE, or 20-HETE (concentrations 1 nM to 10 μM) for 10 min and then placed into gelatin-coated wells and further incubated for 20 min at 37° C. The wells were washed three times with 0.5 ml of solution M199 to remove non-adherent cells. The adherent cells were then removed by addition of 0.4 ml of 0.25% trypsin-EDTA in 0.1 M PBS to the gelatin-coated wells and incubation for 10 min at 37° C. The incubates were transferred and the wells were washed with 0.1 ml of M199 solution. The amount of cells in combined solutions was counted. In some experiments, the adhesion of neutrophils was stimulated by addition of 1 U/ml of thrombin to neutrophil suspension immediately prior to the transfer of cells to the wells. Experiments were performed in duplicates for each concentration of HETE. The inhibition of adhesion was expressed as percent of cells remaining in suspension (non-adherent) relative to control. The range of adherent PMNs in control incubations was 6 to 23%. This was increased two-fold in the presence of thrombin.

[2] = test system: thrombin-stimulated human neutrophils (adhesion to a gelatin matrix); assay: Neutrophil adhesion to gelatin matrix, thrombin-stimulated; assay type: cell-based; conditions: for inhibition at 1 µM: Homo sapiens, Neutrophil, thrombin 1 U/ml, 3×10^6 cells/ml, 10 min preincubation
Description: as §1
Neutrophil adhesion: Isolated neutrophils were resuspended in M199 containing 1% BSA with a final concentration of 3×10^6 cells per ml. Cells suspensions (1 ml) were incubated with or without a test compound, 16(S)-HETE, 16(R)-HETE, or 20-HETE (concentrations 1 nM to 10 μM) for 10 min and then placed into gelatin-coated wells and further incubated for 20 min at 37° C. The wells were washed three times with 0.5 ml of solution M199 to remove non-adherent cells. The adherent cells were then removed by addition of 0.4 ml of 0.25% trypsin-EDTA in 0.1 M PBS to the gelatin-coated wells and incubation for 10 min at 37° C. […] The amount of cells in combined solutions was counted. […] The inhibition of adhesion was expressed as percent of cells remaining in suspension (non-adherent) relative to control. […]

[3] = test system: neutrophil aggregation stimulated by fMLP; assay: fMLP-induced neutrophil aggregation in diluted whole human blood; assay type: cell-based; conditions: for inhibition at 1 µM: 10 min, 1 μM HETE, N = 3 to 4, read-out: Aggregation (percent of inhibition from HETE untreated cells); for inhibition of fMLP-induced neutrophil aggregation: ≤10 μM
Description: (§2) Neutrophil activity: Stimulated neutrophil aggregation and oxygen free radical release were examined in whole human blood using a whole-blood aggregometer-chemiluminometer (Chronolog, Haverton, Pa.) as described Bednar et al. J. Thromb. Thrombol. 1, 179-185 (1995). Blood samples containing heparin (1 U/ml) as the anticoagulant were diluted in HBSS in proportion 1 to 9. Diluted blood aliquots (1 ml) were stirred (400 rpm) in a prewarmed (37° C.) siliconized cuvette containing cytochalasin b (5 μg/ml) and luminol (in 8 μl DMSO, 500 μM final concentration) and the test HETE (concentration 0.01 to 10 μM) for 10 min. Neutrophils were stimulated with a submaximal dose of FMLP (5×10^-7 M final concentration). The aggregation and chemiluminescence were simultaneously measured as changes of impedance and luminescence respectively. The fMLP-induced chemiluminescence was calculated as the peak height of the reaction.

[4] = test system: oxygen free radicals (OFR) release stimulated by fMLP; assay: fMLP-stimulated oxygen free radical (OFR) release, chemiluminescence, in diluted human blood; assay type: cell-based; conditions: 10 min, 1 μM HETE, fMLP 5×10^-7 M, N = 3 to 4, read-out: OFR Release (percent of inhibition from HETE untreated cells)
Description: as §2

human neutrophils = assay: Agonist activity on human neutrophils; assay type: cell-based; conditions: ≤20 μM
[5] = test system: platelet or other leukocyte; assay: Platelet or other leukocyte activity or function
[6] = test system: formation of product A by human neutrophils; assay: Inhibition of arachidonic acid metabolism (formation of product A) in intact human neutrophils; assay type: cell-based; conditions: SKF 525A 100 μM, BW755C 94 μM, 10 min preincubation
Description: as §1, with “The neutrophils were then isolated from the sample by centrifugation (2000× g) and suspended in Hanks balanced salt solution (HBSS) containing 1 mM Ca^2+ and 0.8 mM Mg^2+ for studies involving arachidonic acid metabolism, and in M199 (with 1% BSA) for neutrophil adhesion assays.” left out, “assay. […]” for “assay.”
After ten minutes in arachidonic acid the reaction was terminated by the addition of cold methanol (four volumes). […] The effluent was passed through a UV detector (HP1050/ChemStation-Hewlett-Packard, Palo Alto, Calif.) and a radioactivity detector (Radiomatic, Meridian, Conn.) with a splitter (ratio 1:10) and collected in 1 ml fractions.

[7] = test system: intact canine and human neutrophils; conditions: cited from earlier work
[8] = Neutrophil, fMLP 5×10^-7 M, diluted human blood

With `CCCCC[C@H](O)/C=C/C=C\C/C=C\C/C=C\CCCC(=O)O` [15-HETE] the “inhibition of neutrophil aggregation” value (neutrophil aggregation) was “neither 20-HETE nor 15-HETE inhibited neutrophil aggregation”.

With `CCCC[C@@H](O)/C=C\C/C=C\C/C=C\C/C=C\CCCC(=O)O` [16(R)-HETE, 16(R)-hydroxy-5,8,11,14-eicosatetraenoic acid] the “inhibition of neutrophil adhesion to gelatin” value ([1]; 10 μM, preincubation) was “completely inhibited”, the inhibition at 1 µM ([1]; gelatin matrix) was 73 ± 11% and the “inhibition of neutrophil adhesion, basal” value [1] was “inhibited neutrophil adhesion in a dose-dependent manner”. The “preincubation time required to inhibit adhesion” value ([1]; gelatin matrix) was 10 min, the “potency of neutrophil inhibition relative to the other stereoisomer” value [1] was “more potent than the effect observed with the opposite stereoisomer” and the inhibition at 1 µM [2] was 50 ± 4%. It also gave an inhibition at 1 µM [3, 8] of 42 ± 11%, an IC50 ([3]; Neutrophil, fMLP 5×10^-7 M, diluted human blood, read-out: IC50, inhibition of fMLP-induced neutrophil aggregation) of 1.2 µM and an inhibition at 1 µM [4] of 8.9 ± 5.1%. The “agonist activity on human neutrophils” value (human neutrophils) was “no detectable agonist activity”.

In the case of `CCCC[C@H](O)/C=C\C/C=C\C/C=C\C/C=C\CCCC(=O)O` [16(S)-HETE, S-stereoisomer of 16-hydroxyeicosatetraenoic acid], the inhibition at 1 µM ([1]; gelatin matrix) is reported as 39 ± 8%, the “inhibition of neutrophil adhesion, basal” value [1] is reported as “inhibited neutrophil adhesion in a dose-dependent manner” and the “potency of neutrophil inhibition relative to the other stereoisomer” value [1] is reported as “less potent”. For the same compound, the inhibition at 1 µM [2] was 40 ± 14%, the inhibition at 1 µM [3, 8] was 7 ± 3.5% and the “inhibition of fMLP-induced neutrophil aggregation” value [3] was “not active”. For the same compound, the inhibition at 1 µM [4] was 5.6 ± 16.7% and the “agonist activity on human neutrophils” value (human neutrophils) was “no detectable agonist activity”.

For `CCCCC(O)/C=C\C/C=C\C/C=C\C/C=C\CCCC(=O)O` (stereo not shown) [16-HETE, 16-hydroxyeicosatetraenoic acid], the “effect on platelet or other leukocyte activity or function” value [5] was “does not affect platelet or other leukocyte activity or function”.

For `O=C(O)CCC/C=C\C/C=C\C/C=C\C/C=C\CCCCCO` [20-HETE, reference compound], the “inhibition of neutrophil adhesion, basal” value [1] was “did not inhibit neutrophil adhesion”, the “inhibition of neutrophil adhesion, thrombin-stimulated” value ([2]; thrombin-stimulated, 20-HETE at ≤10 μM, 16-HETE isomers 10^-8 to 10^-5 M) was “did not inhibit neutrophil adhesion” and the inhibition at 1 µM [3, 8] was 8.1 ± 2.6%. For the same compound, the “inhibition of fMLP-induced neutrophil aggregation” value [3] was “not active”, the inhibition at 1 µM [4] was 3.9 ± 13.4% and the “agonist activity on human neutrophils” value (human neutrophils) was “no detectable agonist activity”. The “inhibition of neutrophil aggregation” value (neutrophil aggregation) was “neither 20-HETE nor 15-HETE inhibited neutrophil aggregation”.

For `NC1=NN(c2cccc(C(F)(F)F)c2)CC1` [BW755C], the “inhibition of formation of product A” value [6] was “not with BW755C”.

For `CCCC(C(=O)OCCN(CC)CC)(c1ccccc1)c1ccccc1` [SKF525A], the “inhibition of formation of product A” value [6] is given as “can be inhibited with SKF525A” and the “inhibition of formation of polar arachidonic acid metabolites” value [7] is given as “formation can be inhibited”.

For `[C-]#[O+]` [carbon monoxide], the “inhibition of formation of polar arachidonic acid metabolites” value [7] is listed as “formation can be inhibited”.
